Assay results as given in ChEMBL document CHEMBL1201862, “PubChem BioAssay data set” (2004).
Active and inactive are the calls of the source.

Assays:
[1] = non-specific cell cytotoxicity, dose response, cytotoxicity control for PAX8 inhibitor project, plate reader, dry powder samples (AID 743021); type: functional, cell-based
[2] = inhibitors of firefly luciferase expression or activity, dose response, H4 neuroglioma cells, luminescence (AID 1990); type: functional, cell-based
HEK293 [3] = assay: HEK cell cytotoxicity by LDH release, dose response, cytotoxicity control for IDE activator project, fluorescence, HEK cells (AID 588440); type: functional, cell-based; conditions: Homo sapiens;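 also: cytotoxicity by LDH release measuring loss of membrane integrity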
HEK293 [4] = assay: optical interference in Abeta FP readout, dose response, artefact control for IDE activator project, biochemical, fluorescence polarization (AID 588442); type: functional, cell-based; conditions: Homo sapiens
Nonstructural protein 1 = Nonstructural protein 1 (Influenza A virus, UniProt Q194T2); type: functional, Influenza A virus (A/California/07/2009(H1N1))
Aurora kinase A = molecular target: T1, Aurora kinase A (Homo sapiens, UniProt O14965); type: functional;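 also: value from the Navigating the Kinome kinase panel profiling, panel entry STK6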
T1 sequence (O14965 whole entry): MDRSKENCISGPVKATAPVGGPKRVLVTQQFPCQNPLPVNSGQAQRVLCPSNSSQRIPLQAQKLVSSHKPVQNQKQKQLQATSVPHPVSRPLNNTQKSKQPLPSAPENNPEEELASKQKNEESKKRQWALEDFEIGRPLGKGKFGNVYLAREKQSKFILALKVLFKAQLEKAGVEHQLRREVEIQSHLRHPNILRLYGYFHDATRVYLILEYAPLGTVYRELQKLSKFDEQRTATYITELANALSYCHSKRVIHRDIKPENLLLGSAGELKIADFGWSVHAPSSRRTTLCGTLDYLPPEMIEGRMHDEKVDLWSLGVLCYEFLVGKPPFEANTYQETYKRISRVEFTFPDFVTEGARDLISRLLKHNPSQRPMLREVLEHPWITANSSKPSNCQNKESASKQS

[5] = molecular target: Rho-associated protein kinase 1 (Homo sapiens, UniProt Q13464); type: functional;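 also: measured within a broad kinome-wide panel profiling many kinases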
Insulin receptor = Insulin receptor (Homo sapiens, UniProt P06213); type: functional;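 also: insulin receptor kinase tested as one member of a kinome-wide kinase panel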
[6] = molecular target: Vascular endothelial growth factor receptor 3 (Homo sapiens, UniProt P35916); type: functional;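 also: value from a kinome-wide profiling panel, with FLT4 as the panel member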
[7] = molecular target: High affinity nerve growth factor receptor (Homo sapiens, UniProt P04629); type: functional;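 also: NTRK1 tested as one member of a kinome-wide profiling panel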
[8] = molecular target: Tyrosine-protein kinase Blk (Homo sapiens, UniProt P51451); type: functional;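 also: obtained as one member of a kinome-wide kinase assay panel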
[9] = molecular target: RAC-gamma serine/threonine-protein kinase (Homo sapiens, UniProt Q9Y243); type: functional
[10] = molecular target: Mitogen-activated protein kinase 9 (Homo sapiens, UniProt P45984); type: functional;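 also: value from a kinome panel profiling assay, MAPK9 panel entry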
[11] = molecular target: Casein kinase II subunit alpha (Homo sapiens, UniProt P68400); type: functional
[12] = molecular target: Tyrosine-protein kinase JAK2 (Homo sapiens, UniProt O60674); type: functional;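 also: JAK2 tested as one member of a kinase panel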
[13] = molecular target: MAP kinase-activated protein kinase 2 (Homo sapiens, UniProt P49137); type: functional;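 also: measured as one member of a kinome-wide kinase panel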
[14] = molecular target: Fibroblast growth factor receptor 1 (Homo sapiens, UniProt P11362); type: functional
[15] = molecular target: Serine/threonine-protein kinase PAK 4 (Homo sapiens, UniProt O96013); type: functional;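 also: value obtained within a kinome profiling panel in which PAK4 was one of the panel members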
BJ = assay: cytotoxicity toward BJ-TERT fibroblasts, dose response, cell-based, RAS-independent, luminescence (AID 1933); type: functional; conditions: Homo sapiens
[16] = molecular target: Luciferin 4-monooxygenase (Photinus pyralis, UniProt P08659); assay: firefly luciferase enzyme inhibitors, dose response, biochemical, luminescence (AID 1891)
Caspase-3 = molecular target: T2, Caspase-3 (Homo sapiens, UniProt P42574); type: functional;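 also: Dose-response selectivity test against caspase-3 for candidate inhibitors of sentrin-specific proteases (SENPs)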
T2 sequence (P42574 whole entry): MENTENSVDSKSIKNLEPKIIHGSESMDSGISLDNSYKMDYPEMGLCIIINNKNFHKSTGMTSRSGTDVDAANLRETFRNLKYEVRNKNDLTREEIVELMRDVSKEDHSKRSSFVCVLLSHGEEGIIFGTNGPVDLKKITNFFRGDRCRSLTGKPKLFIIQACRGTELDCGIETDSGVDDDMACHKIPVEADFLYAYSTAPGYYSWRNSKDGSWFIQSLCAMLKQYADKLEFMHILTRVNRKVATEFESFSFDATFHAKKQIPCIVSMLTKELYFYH

[17] = molecular target: T3, Sentrin-specific protease 6 (Homo sapiens, UniProt Q9GZR1); type: functional;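 also: Luminescence-based dose-response confirmatory assay of SENP6 inhibition, following up an ultra-high-throughput screen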
T3 sequence (Q9GZR1 whole entry): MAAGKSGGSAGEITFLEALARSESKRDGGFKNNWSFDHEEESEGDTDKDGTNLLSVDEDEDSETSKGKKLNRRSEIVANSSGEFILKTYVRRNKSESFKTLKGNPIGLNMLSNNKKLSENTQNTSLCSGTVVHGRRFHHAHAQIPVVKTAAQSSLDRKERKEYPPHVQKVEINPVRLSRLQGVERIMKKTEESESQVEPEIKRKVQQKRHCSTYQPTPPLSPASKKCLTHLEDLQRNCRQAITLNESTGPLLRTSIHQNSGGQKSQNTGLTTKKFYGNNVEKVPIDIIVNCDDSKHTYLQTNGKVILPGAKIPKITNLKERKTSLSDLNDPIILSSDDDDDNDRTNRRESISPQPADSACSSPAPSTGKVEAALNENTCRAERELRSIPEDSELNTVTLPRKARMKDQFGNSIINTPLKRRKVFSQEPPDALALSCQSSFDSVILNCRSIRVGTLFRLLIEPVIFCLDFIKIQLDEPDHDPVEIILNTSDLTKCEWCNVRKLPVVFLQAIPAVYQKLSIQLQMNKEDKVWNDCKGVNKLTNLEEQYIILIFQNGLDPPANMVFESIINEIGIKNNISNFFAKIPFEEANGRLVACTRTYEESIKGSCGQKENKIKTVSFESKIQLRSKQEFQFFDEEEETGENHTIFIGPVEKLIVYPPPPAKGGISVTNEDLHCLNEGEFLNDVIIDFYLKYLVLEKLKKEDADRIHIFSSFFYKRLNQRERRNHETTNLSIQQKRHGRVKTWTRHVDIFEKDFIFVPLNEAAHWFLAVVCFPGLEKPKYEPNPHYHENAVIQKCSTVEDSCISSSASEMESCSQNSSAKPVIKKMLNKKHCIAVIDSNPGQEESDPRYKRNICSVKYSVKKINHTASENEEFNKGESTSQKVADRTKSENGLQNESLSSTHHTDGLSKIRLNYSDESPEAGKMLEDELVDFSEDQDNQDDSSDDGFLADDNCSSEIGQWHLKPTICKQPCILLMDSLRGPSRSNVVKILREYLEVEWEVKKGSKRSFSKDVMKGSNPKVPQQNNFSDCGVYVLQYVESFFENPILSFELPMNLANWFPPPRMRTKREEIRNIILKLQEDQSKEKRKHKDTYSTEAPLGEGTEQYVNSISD

Sequence of Rho-associated protein kinase 1 (Q13464 whole entry): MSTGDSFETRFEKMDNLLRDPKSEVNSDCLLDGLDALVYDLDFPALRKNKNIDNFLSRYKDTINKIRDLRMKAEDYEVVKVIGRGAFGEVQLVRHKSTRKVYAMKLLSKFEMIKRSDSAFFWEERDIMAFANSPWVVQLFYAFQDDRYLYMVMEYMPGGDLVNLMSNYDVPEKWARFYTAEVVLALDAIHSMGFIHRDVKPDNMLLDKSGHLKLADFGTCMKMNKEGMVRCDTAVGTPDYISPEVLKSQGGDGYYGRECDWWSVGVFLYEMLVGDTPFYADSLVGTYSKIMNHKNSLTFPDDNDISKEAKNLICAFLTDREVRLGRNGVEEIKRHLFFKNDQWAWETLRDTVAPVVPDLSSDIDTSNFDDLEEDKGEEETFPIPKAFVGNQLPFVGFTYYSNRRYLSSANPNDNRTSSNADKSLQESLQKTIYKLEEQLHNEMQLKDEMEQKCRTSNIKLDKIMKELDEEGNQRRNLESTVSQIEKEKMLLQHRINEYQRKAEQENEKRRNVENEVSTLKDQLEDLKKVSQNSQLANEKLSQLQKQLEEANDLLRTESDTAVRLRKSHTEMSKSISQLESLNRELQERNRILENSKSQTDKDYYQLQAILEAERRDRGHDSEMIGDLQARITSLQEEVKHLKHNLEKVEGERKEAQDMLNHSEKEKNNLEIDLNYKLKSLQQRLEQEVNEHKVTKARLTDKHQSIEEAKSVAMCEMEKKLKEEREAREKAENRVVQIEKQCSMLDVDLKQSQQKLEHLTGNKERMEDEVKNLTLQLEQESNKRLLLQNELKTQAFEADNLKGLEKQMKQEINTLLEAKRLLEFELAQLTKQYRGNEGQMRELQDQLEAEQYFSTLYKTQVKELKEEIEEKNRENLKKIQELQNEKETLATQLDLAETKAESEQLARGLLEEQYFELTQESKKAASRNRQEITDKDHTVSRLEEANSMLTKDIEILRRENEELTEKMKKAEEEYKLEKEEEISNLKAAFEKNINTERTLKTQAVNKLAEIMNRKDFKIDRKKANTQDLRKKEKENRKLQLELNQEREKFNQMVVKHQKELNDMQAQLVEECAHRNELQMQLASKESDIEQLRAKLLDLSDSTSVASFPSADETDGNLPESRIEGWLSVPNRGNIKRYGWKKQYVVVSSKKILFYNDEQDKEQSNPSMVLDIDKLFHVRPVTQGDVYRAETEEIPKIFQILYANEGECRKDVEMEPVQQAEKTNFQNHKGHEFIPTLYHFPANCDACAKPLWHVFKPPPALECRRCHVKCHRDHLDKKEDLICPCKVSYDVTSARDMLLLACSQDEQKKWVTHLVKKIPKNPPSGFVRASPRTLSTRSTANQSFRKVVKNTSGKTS
Sequence of Casein kinase II subunit alpha (P68400 whole entry): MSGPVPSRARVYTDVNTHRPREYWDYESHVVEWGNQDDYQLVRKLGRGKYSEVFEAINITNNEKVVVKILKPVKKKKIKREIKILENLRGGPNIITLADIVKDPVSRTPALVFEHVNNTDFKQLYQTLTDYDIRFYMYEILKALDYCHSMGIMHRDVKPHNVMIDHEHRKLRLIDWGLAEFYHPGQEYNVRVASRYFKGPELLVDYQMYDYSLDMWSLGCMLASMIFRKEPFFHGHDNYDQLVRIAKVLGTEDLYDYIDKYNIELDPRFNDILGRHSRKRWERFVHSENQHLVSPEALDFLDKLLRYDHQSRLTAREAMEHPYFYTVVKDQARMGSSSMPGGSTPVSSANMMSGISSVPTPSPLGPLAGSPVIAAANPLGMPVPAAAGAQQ
Sequence of Insulin receptor (P06213 28-758 limits assumed): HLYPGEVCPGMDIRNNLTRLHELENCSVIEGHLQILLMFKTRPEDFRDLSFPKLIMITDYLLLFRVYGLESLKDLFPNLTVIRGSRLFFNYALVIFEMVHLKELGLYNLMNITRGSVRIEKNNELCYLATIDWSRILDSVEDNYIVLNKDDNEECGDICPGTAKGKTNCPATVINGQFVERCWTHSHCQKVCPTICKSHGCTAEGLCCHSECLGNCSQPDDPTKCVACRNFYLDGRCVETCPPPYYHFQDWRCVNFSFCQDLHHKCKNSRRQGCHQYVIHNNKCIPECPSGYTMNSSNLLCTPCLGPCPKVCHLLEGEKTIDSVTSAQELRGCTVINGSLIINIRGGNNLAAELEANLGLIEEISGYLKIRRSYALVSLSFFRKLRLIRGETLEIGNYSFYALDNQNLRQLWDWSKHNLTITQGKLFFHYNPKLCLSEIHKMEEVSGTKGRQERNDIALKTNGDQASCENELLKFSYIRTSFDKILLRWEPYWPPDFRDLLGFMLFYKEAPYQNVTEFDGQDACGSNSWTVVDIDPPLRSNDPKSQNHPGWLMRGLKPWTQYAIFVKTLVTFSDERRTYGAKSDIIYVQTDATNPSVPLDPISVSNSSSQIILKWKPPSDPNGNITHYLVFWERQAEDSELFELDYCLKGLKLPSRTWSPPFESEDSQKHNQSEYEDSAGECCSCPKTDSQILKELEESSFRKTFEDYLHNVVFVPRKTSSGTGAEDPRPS
Sequence of Insulin receptor (P06213 763-1382 limits assumed): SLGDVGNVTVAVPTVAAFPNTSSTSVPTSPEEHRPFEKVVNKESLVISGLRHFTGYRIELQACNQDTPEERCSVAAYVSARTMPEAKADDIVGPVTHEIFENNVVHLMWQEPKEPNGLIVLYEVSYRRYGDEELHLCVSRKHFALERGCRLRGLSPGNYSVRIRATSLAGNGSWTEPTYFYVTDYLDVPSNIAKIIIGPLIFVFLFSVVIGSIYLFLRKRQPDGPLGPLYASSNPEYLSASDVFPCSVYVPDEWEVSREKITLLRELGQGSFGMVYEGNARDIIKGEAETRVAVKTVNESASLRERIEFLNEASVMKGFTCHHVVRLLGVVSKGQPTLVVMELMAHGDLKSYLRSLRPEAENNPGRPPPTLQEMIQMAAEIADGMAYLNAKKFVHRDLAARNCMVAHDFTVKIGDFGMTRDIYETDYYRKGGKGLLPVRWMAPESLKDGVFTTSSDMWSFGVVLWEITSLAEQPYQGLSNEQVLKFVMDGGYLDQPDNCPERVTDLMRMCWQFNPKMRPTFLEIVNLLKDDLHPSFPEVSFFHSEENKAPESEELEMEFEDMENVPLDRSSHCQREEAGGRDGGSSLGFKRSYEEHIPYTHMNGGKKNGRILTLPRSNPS
Sequence of Vascular endothelial growth factor receptor 3 (P35916 whole entry): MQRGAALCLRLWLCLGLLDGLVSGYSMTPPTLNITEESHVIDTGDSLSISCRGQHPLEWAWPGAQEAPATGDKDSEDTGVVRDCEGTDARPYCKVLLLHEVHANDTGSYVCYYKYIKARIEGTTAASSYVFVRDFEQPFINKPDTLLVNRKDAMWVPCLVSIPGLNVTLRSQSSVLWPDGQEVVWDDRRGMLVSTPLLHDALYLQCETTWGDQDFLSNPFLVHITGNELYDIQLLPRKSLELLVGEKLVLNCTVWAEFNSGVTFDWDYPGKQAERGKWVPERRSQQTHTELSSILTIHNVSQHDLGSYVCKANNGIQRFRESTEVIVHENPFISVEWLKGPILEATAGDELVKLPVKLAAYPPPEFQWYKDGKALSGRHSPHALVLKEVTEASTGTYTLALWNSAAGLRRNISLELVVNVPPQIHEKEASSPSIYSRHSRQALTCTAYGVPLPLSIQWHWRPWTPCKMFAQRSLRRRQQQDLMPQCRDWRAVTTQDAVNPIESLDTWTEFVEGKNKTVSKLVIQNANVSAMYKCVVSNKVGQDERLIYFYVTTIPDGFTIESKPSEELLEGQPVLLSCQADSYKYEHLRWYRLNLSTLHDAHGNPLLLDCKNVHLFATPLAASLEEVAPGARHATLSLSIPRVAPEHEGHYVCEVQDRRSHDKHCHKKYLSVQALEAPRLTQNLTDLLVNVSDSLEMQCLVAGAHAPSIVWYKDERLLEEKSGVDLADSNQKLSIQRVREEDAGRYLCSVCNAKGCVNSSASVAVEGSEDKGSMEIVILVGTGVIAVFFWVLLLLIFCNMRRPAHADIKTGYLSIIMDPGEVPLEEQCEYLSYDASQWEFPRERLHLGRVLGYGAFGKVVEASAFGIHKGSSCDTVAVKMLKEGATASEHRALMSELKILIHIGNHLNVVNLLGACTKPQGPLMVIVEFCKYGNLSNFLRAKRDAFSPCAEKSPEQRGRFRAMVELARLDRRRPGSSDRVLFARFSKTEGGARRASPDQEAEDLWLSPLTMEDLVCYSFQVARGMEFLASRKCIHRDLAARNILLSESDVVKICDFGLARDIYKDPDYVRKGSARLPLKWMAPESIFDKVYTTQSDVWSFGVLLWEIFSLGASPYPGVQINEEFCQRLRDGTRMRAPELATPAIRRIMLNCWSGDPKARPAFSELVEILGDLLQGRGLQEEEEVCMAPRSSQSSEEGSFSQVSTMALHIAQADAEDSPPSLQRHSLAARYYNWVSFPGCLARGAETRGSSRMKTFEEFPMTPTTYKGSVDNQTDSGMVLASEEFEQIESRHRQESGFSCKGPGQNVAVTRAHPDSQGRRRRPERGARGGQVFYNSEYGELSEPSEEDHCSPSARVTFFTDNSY
Sequence of Luciferin 4-monooxygenase (P08659 whole entry): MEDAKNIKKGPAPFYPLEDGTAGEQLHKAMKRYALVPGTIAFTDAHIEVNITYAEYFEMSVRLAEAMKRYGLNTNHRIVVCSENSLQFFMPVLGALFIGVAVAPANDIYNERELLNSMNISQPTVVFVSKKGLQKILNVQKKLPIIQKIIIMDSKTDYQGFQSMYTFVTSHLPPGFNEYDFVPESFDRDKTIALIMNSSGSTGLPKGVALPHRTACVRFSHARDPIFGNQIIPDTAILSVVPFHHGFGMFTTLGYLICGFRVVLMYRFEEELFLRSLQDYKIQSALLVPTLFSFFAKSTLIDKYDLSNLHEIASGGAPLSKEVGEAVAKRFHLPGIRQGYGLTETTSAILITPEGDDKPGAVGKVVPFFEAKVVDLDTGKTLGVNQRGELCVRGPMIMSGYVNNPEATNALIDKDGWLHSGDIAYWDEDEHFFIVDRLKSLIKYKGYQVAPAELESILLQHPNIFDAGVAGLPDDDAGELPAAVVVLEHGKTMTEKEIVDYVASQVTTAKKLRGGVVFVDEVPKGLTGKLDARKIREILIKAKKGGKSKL

## CC[C@@H](C)[C@H](CNC)NC[C@@H](Cc1cccc2ccccc12)NCCc1cccc(C(F)(F)F)c1
[1]
  AC50: 27.5 µM (active)
[2]
  EC50: 8.36 µM (active)
HEK293 [3]
  IC50: 8.67 µM (active)
HEK293 [4]
  EC50: > 54.7 µM (inactive)

## Cc1ccc(S(=O)(=O)/N=C2\C=C(Nc3cccc(C(=O)O)c3)C(=O)c3ccccc32)cc1
Nonstructural protein 1
  IC50: 19.9 µM (active)

## CC(C)(CO)CNc1nccc(-c2c(-c3ccc(F)cc3)nc3c(CC4CC4)nccn23)n1
Aurora kinase A
  Ki: > 3.98 µM (inactive)
[5]
  Ki: > 10 µM (inactive)
Insulin receptor
  Ki: > 5.01 µM (inactive)
[6]
  Ki: > 6.31 µM (inactive)
[7]
  Ki: > 2.51 µM (inactive)
[8]
  Ki: > 1.58 µM (inactive)
[9]
  Ki: > 10 µM (inactive)
[10]
  Ki: 0.0316 µM (active)
[11]
  Ki: > 6.31 µM (inactive)
[12]
  Ki: > 1.58 µM (inactive)
[13]
  Ki: > 7.94 µM (inactive)
[14]
  Ki: > 5.01 µM (inactive)
[15]
  Ki: > 5.01 µM (inactive)

## O=[N+]([O-])c1c(Nc2ccccn2)cc(Cl)c2nonc12
BJ
  EC50: 5.14 µM (inconclusive)
[16]
  EC50: > 112 µM (not active)

## Cc1ccc(C(=O)NC2(O)C(=O)c3ccccc3C2=O)cc1C
Caspase-3
  IC50: > 100 µM (inactive)
[17]
  IC50: 3.48 µM (active)
